Assay results as given in US12648924B2, “Prevention and treatment of effects of aging and age-associated disorders with ketone supplementation” (priority 2020, dated 2026).

Assay: Tolerability of KDE incorporated in food, bodyweight and food intake (pilot work, Experiment 4b)
Type: in vivo, VM/Dk mice
Excerpt: Food Intake and Ketone Diester Administration: Standard diet dry food (2018 Teklad Global 18% Protein Rodent Diet, Harlan) was mixed with deionized water (1 g dry food/mL deionized water) into a consistent paste and placed on a 100×15 mm dish. Food intake was tracked daily at the same time (7:00-9:00) and replaced every other day to ensure fresh food. Due to sinusoidal/oscillatory changes in food intake observed every other day (2-day pattern), a 4-day (2×2-day pattern) average was taken at EOL and baseline to calculate changes in anorexic symptoms. KDE was chemically synthesized with physical properties, preparation, and analysis described previously. For evaluation of KDE effect on anorexia, food intake was tracked daily at the same time (7:00-9:00). […] Consequently, upon VM-M3 inoculation, KDE+VM-M3 received ad libitum 0% KDE/weight day 1, 5% KDE day 2, 10% KDE day 3, 15% KDE day 4, 20% KDE day 5, 25% KDE day 6, and 30% KDE day 7 through 21 on top of HPSD. VM-M3 and Sham received HPSD ad libitum. As pilot work indicated potential water evaporation in food paste in ventilated cages, dehydration standard curve was calculated across various volumes of plated food (5, 10, 25.0, 50.0, 100 g/food) with and without KDE over a two-day period. Standard curve equation [water evaporated=0.2472 (original grams of water)+1.364] was used to correct for amount of dehydration prior to calculating caloric intake. For LPS experiments, 1×4 mL/kg KDE gavage or 1×4 mL/kg water gavage were administered for KDE+LPS and LPS-only, respectively. […]
To determine whether KDE could alter systemic metabolism, blood metabolites were measured at baseline following a standard diet and after a 4-day transition to a standard diet supplemented with 20% KDE, 25% KDE, or 30% KDE. […] To determine whether KDE could alter metabolism in CACS, blood ketones, glucose, and lactate were measured weekly. […] Thus, to determine if KDE altered tumor burden, in vivo bioluminescence imaging was analyzed weekly.

## CC(=O)CC(=O)OCCC(C)OC(=O)CC(C)=O (stereo not drawn) [KDE, R/S 1,3-butanediol acetoacetate diester]
20-30% by weight KDE incorporated in standard diet, pilot work
  ad libitum food intake: reductions in ad libitum food intake
30% KDE reached incrementally (5%/day) over 7 days
  tolerability as indicated by bodyweight maintenance: well-tolerated
Incremental incorporation 0-30% KDE/weight at 5% KDE/weight/day, highly palatable standard diet
  bodyweight across time: did not result in changes in bodyweight across time
